Numbers after ± are expanded uncertainties.
Settings: 101.33 kPa, Liquid, Vibrating wire viscometry

Work on `CC(C)CCCCCCCOC(=O)c1ccccc1C(=O)OCCCCCCCC(C)C` yielded a viscosity (283.03 K) of 264.88 ± 8.6 mPa·s, a viscosity (288.23 K) of 176.35 ± 4.9 mPa·s and a viscosity (288.36 K) of 173.92 ± 4.9 mPa·s. It also gave a viscosity (293.23 K) of 122.34 ± 2.6 mPa·s, a viscosity (293.93 K) of 116.51 ± 2.4 mPa·s and a viscosity (298.13 K) of 87.76 ± 1.6 mPa·s. For the same compound, the viscosity (298.58 K) was 85.3 ± 1.5 mPa·s, the viscosity (303.18 K) was 64.51 ± 1.1 mPa·s and the viscosity (303.5 K) was 63.25 ± 1 mPa·s.

Source: the NIST ThermoML archive (doi:10.1021/je900113f)
